Values joined by “and” are separate entries in the source; they are usually repeats but may differ in a detail not shown here. Equal entries are not always repeated. ± gives the uncertainty stated by the source.
Assay: xn = mol fraction of the nth substance listed

CC(N)C(=O)[O-].CCCCn1cc[n+](C)c1 + O
Settings	viscosity [mPa·s]
318.15 K, 100.3 kPa, x1 = 0.01781	1.114 ± 0.016

CNC(=O)NC + O
101 kPa
Settings	viscosity [mPa·s]
293.15 K, x1 = 0.000596	1.045 ± 0.0099
293.15 K, x1 = 0.06729	2.325 ± 0.015
293.15 K, x1 = 0.08722	2.805 ± 0.017
298.15 K, x1 = 0.1358	3.535 ± 0.021
298.15 K, x1 = 0.2199	5.955 ± 0.036
303.15 K, x1 = 0.08722	2.055 ± 0.014
308.15 K, x1 = 0.11	2.135 ± 0.014
308.15 K, x1 = 0.1358	2.545 ± 0.017
313.15 K, x1 = 0.1358	2.195 ± 0.015

CCCCCCCC(=O)OCC + CC(C)CCO
100 kPa
Settings	viscosity [mPa·s]
298.15 K, x1 = 0.3	1.885 ± 0.02
308.15 K, x1 = 0.5001	1.315 ± 0.015
313.15 K, x1 = 0.1	1.845 ± 0.019

O=C(O)c1ccccc1 + CC(C)=O
viscosity, 101 kPa
Settings	298.15 K	303.15 K	308.15 K	313.15 K	318.15 K
x1 = 0.201	–	–	0.6647 ± 0.0057 mPa·s	–	0.5884 ± 0.0052 mPa·s
x1 = 0.2103	0.755 ± 0.02 mPa·s	0.7075 ± 0.019 mPa·s	0.6647 ± 0.018 mPa·s	0.6278 ± 0.017 mPa·s	0.5884 ± 0.016 mPa·s
x1 = 0.213	–	–	0.6741 ± 0.0058 mPa·s	–	0.5924 ± 0.0051 mPa·s
x1 = 0.229	–	0.7776 ± 0.021 mPa·s	0.7283 ± 0.019 mPa·s and 0.7283 ± 0.0061 mPa·s	0.6819 ± 0.018 mPa·s	0.6407 ± 0.017 mPa·s and 0.6407 ± 0.0057 mPa·s
x1 = 0.247	–	–	0.75 ± 0.0063 mPa·s	–	0.6571 ± 0.0057 mPa·s

CCC(C)=O + CC(C)CO
viscosity [mPa·s], 101.3 kPa
Settings	x2 = 0.0854	x2 = 0.1986	x2 = 0.3001	x2 = 0.3904	x2 = 0.4974	x2 = 0.5941	x2 = 0.6983	x2 = 0.7991	x2 = 0.8965
298.15 K	0.423 ± 0.004	0.477 ± 0.005	0.538 ± 0.005	0.613 ± 0.006	0.734 ± 0.007	0.885 ± 0.008	1.13 ± 0.011	1.5 ± 0.014	2.115 ± 0.021
308.15 K	0.38 ± 0.004	0.426 ± 0.004	0.476 ± 0.005	0.535 ± 0.005	0.63 ± 0.006	0.748 ± 0.007	0.933 ± 0.009	1.206 ± 0.011	1.637 ± 0.016
318.15 K	0.344 ± 0.004	0.382 ± 0.004	0.424 ± 0.004	0.473 ± 0.005	0.548 ± 0.005	0.64 ± 0.006	0.781 ± 0.007	0.983 ± 0.009	1.289 ± 0.013

CCC(C)=O + CCCCO
viscosity [mPa·s]
Settings	298.15 K	308.15 K	318.15 K
100 kPa, x1 = 0.0997	–	1.465 ± 0.011	–
100 kPa, x1 = 0.1999	–	1.115 ± 0.0096	–
101.3 kPa, x2 = 0.0987	0.428 ± 0.004	0.385 ± 0.004	0.349 ± 0.004
101.3 kPa, x2 = 0.1988	0.476 ± 0.005	0.425 ± 0.004	0.382 ± 0.004
101.3 kPa, x2 = 0.3004	0.538 ± 0.005	0.476 ± 0.005	0.425 ± 0.004
101.3 kPa, x2 = 0.3991	0.616 ± 0.006	0.54 ± 0.005	0.478 ± 0.005
101.3 kPa, x2 = 0.4973	0.722 ± 0.007	0.626 ± 0.006	0.547 ± 0.005
101.3 kPa, x2 = 0.5972	0.861 ± 0.008	0.737 ± 0.007	0.636 ± 0.006
101.3 kPa, x2 = 0.6979	1.06 ± 0.009	0.891 ± 0.008	–
101.3 kPa, x2 = 0.7995	1.361 ± 0.012	1.121 ± 0.01	0.931 ± 0.008
101.3 kPa, x2 = 0.9028	–	1.458 ± 0.013	1.188 ± 0.011

O=C(O)c1ccccc1 + c1ccccc1
viscosity
Settings	303.15 K	308.15 K	313.15 K	318.15 K
101 kPa, x1 = 0.0581	0.6414 ± 0.016 mPa·s	0.5991 ± 0.015 mPa·s	0.5625 ± 0.014 mPa·s	0.5267 ± 0.013 mPa·s
101 kPa, x1 = 0.105	–	0.6626 ± 0.017 mPa·s	0.622 ± 0.016 mPa·s	0.5832 ± 0.015 mPa·s
101.33 kPa, x1 = 0.0581	0.6414 ± 0.0045 mPa·s	0.5991 ± 0.0042 mPa·s	0.5625 ± 0.0039 mPa·s	0.5267 ± 0.0037 mPa·s
101.33 kPa, x1 = 0.05813	–	0.5991 ± 0.02 mPa·s	–	0.5267 ± 0.017 mPa·s
101.33 kPa, x1 = 0.06979	–	0.616 ± 0.02 mPa·s	–	0.5401 ± 0.018 mPa·s
101.33 kPa, x1 = 0.08477	–	0.6421 ± 0.021 mPa·s	–	0.56 ± 0.018 mPa·s
101.33 kPa, x1 = 0.105	–	0.6626 ± 0.0046 mPa·s and 0.6626 ± 0.022 mPa·s	0.622 ± 0.0044 mPa·s	0.5832 ± 0.0041 mPa·s and 0.5832 ± 0.019 mPa·s
101.33 kPa, x1 = 0.1232	–	–	–	0.61 ± 0.02 mPa·s

CCCCCCCC(=O)OCC + CCCCCCCCCCCCCCCC
Settings	viscosity [mPa·s]
295.04 K, 103 kPa, x2 = 0.5	2.176 ± 0.088
298.65 K, 103 kPa, x2 = 0.25	1.72 ± 0.07
312.63 K, 101 kPa, x2 = 0.5	1.583 ± 0.064

COc1ccccc1N + CCCC(C)=O
viscosity [mPa·s], 100 kPa
Settings	x1 = 0.0932	x1 = 0.1824	x1 = 0.2643	x1 = 0.3512	x1 = 0.4494	x1 = 0.5391	x1 = 0.654	x1 = 0.7787	x1 = 0.8784
303.15 K	0.887 ± 0.037	1.312 ± 0.054	1.695 ± 0.069	2.099 ± 0.085	2.548 ± 0.1	2.952 ± 0.12	3.46 ± 0.14	3.999 ± 0.16	4.421 ± 0.18
308.15 K	0.858 ± 0.036	1.257 ± 0.052	1.616 ± 0.066	1.99 ± 0.081	2.406 ± 0.098	2.776 ± 0.11	3.245 ± 0.13	3.741 ± 0.15	4.128 ± 0.17
313.15 K	0.829 ± 0.035	1.202 ± 0.049	1.537 ± 0.063	1.879 ± 0.077	2.262 ± 0.092	2.598 ± 0.11	3.028 ± 0.12	3.481 ± 0.14	3.832 ± 0.15

COC(C)=O + OCCO
viscosity [mPa·s], 101.33 kPa
Settings	x2 = 0.1014	x2 = 0.1953	x2 = 0.2981	x2 = 0.3974	x2 = 0.5029	x2 = 0.5992	x2 = 0.6997	x2 = 0.799	x2 = 0.9639
298.15 K	0.543 ± 0.061	0.645 ± 0.072	0.829 ± 0.091	–	1.85 ± 0.2	2.329 ± 0.25	3.499 ± 0.38	5.578 ± 0.6	9.086 ± 0.96
303.15 K	0.507 ± 0.057	0.599 ± 0.067	0.756 ± 0.084	1.008 ± 0.11	1.633 ± 0.18	2.026 ± 0.22	3.025 ± 0.33	4.658 ± 0.5	7.673 ± 0.82
308.15 K	0.473 ± 0.053	0.561 ± 0.063	0.701 ± 0.078	0.921 ± 0.1	1.439 ± 0.16	1.781 ± 0.19	2.643 ± 0.29	3.989 ± 0.43	6.317 ± 0.68

COC(C)=O + C1COCCO1
303.15 K, 101.3 kPa
Settings	viscosity [mPa·s]
x2 = 0.1026	0.3813 ± 0.0033
x2 = 0.3032	0.4727 ± 0.0037
x2 = 0.5004	0.5895 ± 0.0042
x2 = 0.7187	0.7642 ± 0.005
x2 = 0.8981	0.9562 ± 0.006

O=C(O)c1ccccc1 + CCCO
viscosity
Settings	298.15 K	303.15 K	308.15 K	313.15 K	318.15 K
101 kPa, x1 = 0.164	–	2.531 ± 0.021 mPa·s	–	–	1.77 ± 0.017 mPa·s
101 kPa, x1 = 0.1645	2.892 ± 0.074 mPa·s	2.531 ± 0.065 mPa·s	2.243 ± 0.057 mPa·s	1.988 ± 0.051 mPa·s	1.77 ± 0.045 mPa·s
101 kPa, x1 = 0.178	–	2.603 ± 0.022 mPa·s	–	–	1.816 ± 0.017 mPa·s
101 kPa, x1 = 0.197	–	2.724 ± 0.023 mPa·s	–	–	1.881 ± 0.018 mPa·s
101 kPa, x1 = 0.216	–	2.844 ± 0.024 mPa·s and 2.844 ± 0.072 mPa·s	2.498 ± 0.064 mPa·s	2.206 ± 0.056 mPa·s	1.965 ± 0.019 mPa·s and 1.965 ± 0.05 mPa·s
101.33 kPa, x1 = 0.1645	–	2.531 ± 0.067 mPa·s	–	–	1.77 ± 0.047 mPa·s
101.33 kPa, x1 = 0.178	–	2.603 ± 0.069 mPa·s	–	–	1.816 ± 0.049 mPa·s
101.33 kPa, x1 = 0.1975	–	2.734 ± 0.072 mPa·s	–	–	1.881 ± 0.05 mPa·s
101.33 kPa, x1 = 0.2	2.892 ± 0.02 mPa·s	2.531 ± 0.018 mPa·s and 2.531 ± 0.067 mPa·s	2.243 ± 0.016 mPa·s and 2.243 ± 0.06 mPa·s	1.988 ± 0.014 mPa·s and 1.988 ± 0.053 mPa·s	1.77 ± 0.012 mPa·s and 1.77 ± 0.047 mPa·s
101.33 kPa, x1 = 0.216	–	2.844 ± 0.075 mPa·s	–	–	1.965 ± 0.053 mPa·s
101.33 kPa, x1 = 0.22	–	2.844 ± 0.02 mPa·s and 2.844 ± 0.075 mPa·s	2.498 ± 0.017 mPa·s and 2.498 ± 0.066 mPa·s	2.206 ± 0.015 mPa·s and 2.206 ± 0.058 mPa·s	1.965 ± 0.014 mPa·s and 1.965 ± 0.052 mPa·s

— the CheMixHub viscosity set
